Measured values as given in paper PMC8399443, “Synthesis, Biological Evaluation, and In Silico Modeling of N-Substituted Quinoxaline-2-Carboxamides” (Pharmaceuticals, 2021).
Converted amounts (≈) assume the structure as drawn. “And” between values parts separate entries of the source, which are not always exact repeats. Equal values may be shown once. Read-outs that look alike come from different tables or passages of the source.

What was measured:
Mtb H37Ra = experiment: In vitro antimycobacterial activity, Microplate Alamar Blue Assay (MABA); type: cell-based, Mycobacterium tuberculosis; details: for MIC: Mycobacterium tuberculosis, H37RA, read-out: MIC Mtb H37Ra; for SI (selectivity index): IC50 HepG2 (µM)/MIC Mtb H37Ra (µM)
M. smegmatis = experiment: In vitro antimycobacterial activity, MABA; type: cell-based, Mycobacterium smegmatis; details: Mycolicibacterium smegmatis, read-out: MIC M. smeg
M. aurum = experiment: In vitro antimycobacterial activity, MABA; type: cell-based, Mycobacterium aurum; details: Mycolicibacterium aurum, read-out: MIC M. aurum
HepG2 cell line = experiment: In vitro cytotoxicity, CellTiter 96 (MTS); type: cell-based; details: Homo sapiens, HepG2; cytotoxicity, 24 h incubation, CellTiter 96; read-out: HepG2 IC50
S. aureus = experiment: In vitro antibacterial activity, microdilution broth (EUCAST); type: cell-based; details: Staphylococcus aureus; 48 h; standards; read-out: MIC Staphylococcus aureus
E. faecalis = experiment: as above; type: cell-based; details: Enterococcus faecalis; 48 h; standards; read-out: MIC Enterococcus faecalis
E. coli = experiment: as above; type: cell-based; details: Escherichia coli; 48 h; standards; read-out: MIC Escherichia coli
P. aeruginosa = experiment: as above; type: cell-based; details: Pseudomonas aeruginosa; 48 h; standards; read-out: MIC Pseudomonas aeruginosa
S. epidermidis = experiment: as above; type: cell-based; details: Staphylococcus epidermidis; 48 h; standards; read-out: MIC Staphylococcus epidermidis
K. pneumoniae = experiment: as above; type: cell-based; details: Klebsiella pneumoniae; 48 h; standards; read-out: MIC Klebsiella pneumonia
S. marcescens = experiment: as above; type: cell-based; details: Serratia marcescens; 48 h; standards; read-out: MIC Serratia marcescens

SMILES | MIC (Mtb H37Ra) | MIC (M. smegmatis; MABA) | MIC (M. aurum; MABA) | IC50 (HepG2 cell line) | SI (selectivity index) (Mtb H37Ra) | MIC (M. smegmatis) | other results
O=C(Nc1cccc(F)c1)c1cnc2ccccc2n1 [Compound 8] | 250 µg/mL (≈ 935 µM) | ≥ 500 µg/mL | ≥ 500 µg/mL | > 100 µM |  |  | 
COc1cccc(CNC(=O)c2cnc3ccccc3n2)c1 [Compound 19] | 15.6 µg/mL and 47 µM |  |  | > 1000 µM | >21.3 | ≥ 500 µg/mL | MIC (M. aurum): ≥ 500 µg/mL
O=C(NCCc1ccccc1)c1cnc2ccccc2n1 [Compound 32, N-phenethylquinoxaline-2-carboxamide] | ≥ 500 µg/mL | ≥ 500 µg/mL | ≥ 500 µg/mL | > 1000 µM |  |  | 
COc1ccc(NC(=O)c2nccnc2C(=O)O)cc1 [C00007 R=4-OCH3, reference compound] | ≥ 500 µg/mL |  |  |  |  |  | 
O=C(Nc1cccc(C(F)(F)F)c1)c1cnc2ccccc2n1 [Compound 14] | ≥ 500 µg/mL | ≥ 125 µg/mL | ≥ 125 µg/mL | > 25 µM |  |  | 
Cc1ccc(CNC(=O)c2cnc3ccccc3n2)cc1 [Compound 24] | 7.81 µg/mL and 28.2 µM | ≥ 250 µg/mL | ≥ 250 µg/mL | 87.7 µM | 3.11 |  | 
O=C(NCCCc1ccccc1)c1cnc2ccccc2n1 [Compound 33, N-phenylpropylquinoxaline-2-carboxamide] | 15.6 µg/mL and 53.6 µM | ≥ 500 µg/mL | ≥ 500 µg/mL | 146 µM | 2.7 |  | 
NNC(=O)c1ccncc1 [INH, isoniazid, reference compound] | 0.25 µg/mL and 1.82 µM |  |  | > 1000 µM |  | 15.6 µg/mL | MIC (M. aurum): 3.91 µg/mL
O=C(NCc1cccc(Cl)c1)c1cnc2ccccc2n1 [Compound 26] | 7.81 µg/mL and 26.2 µM | 31.2 µg/mL | 31.2 µg/mL | 140 µM | 5.34 | 105 µM | MIC (M. aurum): 105 µM
CN(C)c1ccc(NC(=O)c2cnc3ccccc3n2)cc1 [Compound 10] | ≥ 500 µg/mL | ≥ 500 µg/mL | ≥ 500 µg/mL | > 250 µM |  |  | 
O=C(O)c1cn(C2CC2)c2cc(N3CCNCC3)c(F)cc2c1=O [CPX, ciprofloxacin] | 0.25 µg/mL and 0.75 µM | 0.125 µg/mL | 0.0156 µg/mL | > 500 µM |  |  | MIC (S. aureus): 0.128 to 0.256 µg/mL (≈ 0.386 to 0.773 µM); MIC (E. faecalis): 0.512 µg/mL (≈ 1.55 µM); MIC (E. coli): 0.008 µg/mL (≈ 0.0241 µM); MIC (P. aeruginosa): 0.128 µg/mL (≈ 0.386 µM); MIC (S. epidermidis): > 1.02 µg/mL; MIC (K. pneumoniae): > 1.02 µg/mL; MIC (S. marcescens): 0.256 µg/mL (≈ 0.773 µM)
O=C(NCc1ccc(Cl)c(Cl)c1)c1cnc2ccccc2n1 [Compound 31] | 7.81 µg/mL and 23.5 µM | ≥ 500 µg/mL | ≥ 500 µg/mL | 66.9 µM | 2.80 |  | 
O=C(NCc1ccccc1Cl)c1cnc2ccccc2n1 [Compound 25] | 15.6 µg/mL and 52.5 µM |  |  | 528 µM |  | ≥ 500 µg/mL | MIC (M. aurum): ≥ 500 µg/mL
O=C(NC1CCCCC1)c1cnc2ccccc2n1 [Compound 6] | 31.2 µg/mL and 122 µM | 31.2 µg/mL | ≥ 500 µg/mL | > 1000 µM | >8.17 | 122 µM | 
O=C(NCc1ccc(F)cc1F)c1cnc2ccccc2n1 [Compound 22] | ≥ 500 µg/mL | ≥ 500 µg/mL | ≥ 500 µg/mL | > 25 µM |  |  | 
O=C(O)c1nccnc1C(=O)Nc1cccc(C(F)(F)F)c1 [C00007 R=3-CF3, reference compound] | 250 µg/mL (≈ 803 µM) |  |  |  |  |  | 
COc1ccc(OC)c(CNC(=O)c2cnc3ccccc3n2)c1 [Compound 18] | 3.91 µg/mL and 12.1 µM |  |  | > 1000 µM |  | ≥ 500 µg/mL | MIC (M. aurum): ≥ 500 µg/mL
O=C(Nc1ccccc1)c1cnc2ccccc2n1 [Compound 1] | ≥ 500 µg/mL | ≥ 250 µg/mL | ≥ 250 µg/mL | > 50 µM |  |  | 
O=C(NCc1ccc(Br)cc1)c1cnc2ccccc2n1 [Compound 27] | 7.81 µg/mL and 22.8 µM | ≥ 500 µg/mL | ≥ 500 µg/mL | > 100 µM | >4.4 |  | 
